The values that follow come from publication PMC8397418, “Novel Bis-Thiazole Derivatives: Synthesis and Potential Cytotoxic Activity Through Apoptosis With Molecular Docking Approaches” (Frontiers in Chemistry, 2021).

A value given as a limit tells only on which side of the number the result lay.

Assay [1] relates to MCF-7 breast cancer cells. The assay can be described thus: MTT cytotoxicity assay, MCF-7. Format: cell-based, human. The note with it: Homo sapiens, MCF7; MTT, 72 h, n = 3; read-out: IC50 MCF-7 (Breast). The protocol: (§1) The synthesized derivatives were screened for their cytotoxic activities against five cancer cell lines (two breast cancer cell lines: MCF-7 and MDA-MB-231, two ovarian cancer cell lines: A2780 and KF-28, and one cervical cancer cell line: Hela). This study was performed using serial concentrations of 25, 50, 100, 150, and 200 µM of each compound using the MTT assay. Percentages of cell viability of the tested compounds with serial concentration against the tested panel of cell lines are depicted in Figure 1, in which there is a decrease in the cell viability with increasing concentrations in a dose–response pattern. […] Therefore, compounds 5a, 5b, and 5f were thought worthwhile to further investigate their effects as either cytotoxic or antiproliferative effects and whether any of them is an inducer of apoptotic cell death in the representative cancer cell lines KF-28 and A2780.
(§2) The human ovarian serous carcinoma cell line KF-28 was kindly provided by Prof. Yoshihiro Kikuchi (Department of Obstetrics and Gynecology, National Defense Medical College, Saitama, Japan), and A2780 cell line was purchased from the ECACC (ECACC 93112519). The cells were maintained in RPMI-1640 (Sigma-Aldrich, United States). The cervical cancer cell line, Hela cells, breast cancer cell line, MCF-7, and MDA-MB-231 were purchased from the ATCC and cultured in DMEM. Both types of media were supplemented with 2 mM L-glutamine (Lonza, Belgium), 10% FBS (Sigma, St. Louis, MO, United States), and 1% penicillin/streptomycin (Lonza, Belgium). All cells were incubated at 37°C in 5% CO2 atmosphere (NuAire). All cancer cell lines were cultured according to the routine tissue culture work as discussed by the Freshney group ([Freshney, 2010]). The cells were plated at a density of 5,000 cells in triplicates in a 96-well plate. On the next day, the cells were treated with the indicated compound(s) at the indicated concentrations in a final volume of 100 μL media. Cell viability was assessed after 72 h using MTT solution (Promega) ([Mosmann, 1983]). 20 μL of the reagent was added to each well, the plate was incubated for 3 h, […] was subsequently measured (570 nm) using a plate reader, and then the IC50 values were calculated using Excel ([Tantawy et al., 2020]).

Assay [2] has as its system Hela cervical cancer cells. The assay can be described thus: MTT cytotoxicity assay, Hela. Type of assay: cell-based. The settings on record: Homo sapiens, MTT, 72 h, n = 3, read-out: IC50 Hela (Cervical). The protocol:
as §1, §2

For assay [3], the system named is A2780 ovarian cancer cells. The assay can be described thus: MTT cytotoxicity assay, A2780. Format: cell-based, human. The note with it: Homo sapiens, A2780; MTT, 72 h, n = 3; read-out: IC50 A2780 (Ovarian). The protocol:
as §1, §2

Assay [4] relates to KF-28 ovarian cancer cells. In words: MTT cytotoxicity assay, KF-28. The settings on record: Homo sapiens; MTT, 72 h, n = 3; read-out: IC50 KF-28 (Ovarian). Type of assay: cell-based, human. The protocol: as §1, §2
The next assay has as its system KF-28 cells. In words: Annexin V-FITC/PI apoptosis assessment. Format: cell-based, human. The settings on record: 48 h, cisplatin 10 μM, DMSO control 0.45%. The protocol: Therefore, we decided to use such technique to investigate if the cytotoxic effect of the compounds indicated by MTT and the cell cycle experiments is apoptotic cell death or not. For that purpose, two cell lines, KF-28 and A2780, were stained by annexin V/PI after treatment with different compounds vs. DMSO for two days in parallel with cisplatin as a reference drug. Results from annexin staining analysis show appreciated annexin V–stained populations when cells are treated with compounds 5a–c, 5f, and 9. […] Similar results were obtained from the other cell line, A2780, treated with the same compounds (Figure 2B).
The cells were seeded into six-well culture plates (3–5 × 10^5 cells/well) and incubated overnight at 37°C, under 5% CO2. The cells were then treated with indicated compounds for 48 h. Next, media supernatants and the cells were collected and washed with ice-cold PBS. Next, the cells were stained with PI (10 mg/ml) for 30 min and analyzed for DNA contents using flow cytometry analysis using an FL2 (λex/em 535/617 nm) signal detector (ACEA Novocyte™ flow cytometer, ACEA Biosciences, Inc., San Diego, CA, United States). For each sample, 12,000 events are acquired. Cell cycle distribution is calculated using a CytoFLex machine and analyzed by CytExpert software. Flow cytometric methodologies (annexin V/PI staining with cell cycle analyses) are carried out as previously described ([Nafie et al., 2020a]; [Nafie et al., 2020b]; [Gad et al., 2020]).

The test system of assay [5] is MDA-MB-231 breast cancer cells. In words: MTT cytotoxicity assay, MDA-MB-231. Format: cell-based. The settings on record: Homo sapiens, MDA-MB-231; MTT, 72 h, n = 3; read-out: IC50 MDA-MB-231 (Breast). The protocol:
as §1, §2

In the case of `Cc1[nH]c(=NN=C2CCC(=NN=c3[nH]c(C)c(N=Nc4ccccc4)s3)CC2)sc1N=Nc1ccccc1` [5a, 1,4-Bis((5-phenylazo-4-methylthiazol-2-ylidene)hydrazono)cyclohexane], the IC50 in assay [1] was greater than 200 µM; in assay [2] it was greater than 200 µM; in assay [3], 77.9 µM; in assay [4] it was less than 25 µM. Further, in the assay with KF-28 cells, the “Total apoptotic cell death (annexin V-positive cells)” value worked out at 38.21%.

For the molecule `Cc1ccc(N=Nc2sc(=NN=C3CCC(=NN=c4[nH]c(C)c(N=Nc5ccc(C)cc5)s4)CC3)[nH]c2C)cc1` [5b, 1,4-Bis((5-(4-tolylazo)-4-methylthiazol-2-ylidene)hydrazono)cyclohexane], the IC50 in assay [1] is greater than 200 µM; in assay [5] it was greater than 200 µM; in assay [2], greater than 200 µM; in assay [3] it was 94.4 µM; in assay [4] it was less than 25 µM. Besides, the “Total apoptotic cell death (annexin V-positive cells)” value with KF-28 cells turned out to be 18.77%.

For the molecule `Cc1[nH]c(=NN=C2CCC(=NN=c3[nH]c(C)c(N=Nc4ccccc4Cl)s3)CC2)sc1N=Nc1ccccc1Cl` [5f, 1,4-Bis((5-(2-chlorophenylazo)-4-methylthiazol-2-ylidene)hydrazono)cyclohexane], the IC50 in assay [1] is greater than 200 µM; in assay [5] it was greater than 200 µM; in assay [2], greater than 200 µM; in assay [3], less than 25 µM; in assay [4] it was less than 25 µM.
